Five molecules from US10168342B2, “Lipid probes and uses thereof” (THE SCRIPPS RESEARCH INSTITUTE, priority 2015, dated 2019) can be followed below.

For test [1], the target named is T1, AEA-DA lipid probe targets in Neuro2a cells (Mus musculus, UniProt P55096).
T1 sequence (P55096 1-659): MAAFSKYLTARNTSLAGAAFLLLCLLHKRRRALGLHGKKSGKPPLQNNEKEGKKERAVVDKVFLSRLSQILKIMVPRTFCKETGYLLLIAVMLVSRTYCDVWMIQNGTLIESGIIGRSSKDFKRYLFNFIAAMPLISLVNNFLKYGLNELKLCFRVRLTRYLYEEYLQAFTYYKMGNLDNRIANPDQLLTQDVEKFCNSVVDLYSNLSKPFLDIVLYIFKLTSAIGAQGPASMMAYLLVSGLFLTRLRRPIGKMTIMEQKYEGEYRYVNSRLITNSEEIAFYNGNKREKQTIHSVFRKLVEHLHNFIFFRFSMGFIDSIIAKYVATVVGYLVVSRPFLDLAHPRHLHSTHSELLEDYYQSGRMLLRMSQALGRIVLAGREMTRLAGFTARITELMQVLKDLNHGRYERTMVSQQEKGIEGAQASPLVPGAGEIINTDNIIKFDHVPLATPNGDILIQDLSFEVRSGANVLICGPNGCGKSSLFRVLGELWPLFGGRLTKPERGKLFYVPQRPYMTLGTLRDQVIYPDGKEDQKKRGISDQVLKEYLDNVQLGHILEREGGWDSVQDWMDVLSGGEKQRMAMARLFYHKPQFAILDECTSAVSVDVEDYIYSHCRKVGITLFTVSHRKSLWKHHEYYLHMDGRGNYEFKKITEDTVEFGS

Test [2] concerns the target AEA-DA lipid probe targets in Neuro2a cells (Mus musculus, UniProt Q9D771).
Test [3] addresses T2, AEA-DA lipid probe targets in Neuro2a cells (Mus musculus, UniProt Q61335).
T2 sequence (Q61335 1-245): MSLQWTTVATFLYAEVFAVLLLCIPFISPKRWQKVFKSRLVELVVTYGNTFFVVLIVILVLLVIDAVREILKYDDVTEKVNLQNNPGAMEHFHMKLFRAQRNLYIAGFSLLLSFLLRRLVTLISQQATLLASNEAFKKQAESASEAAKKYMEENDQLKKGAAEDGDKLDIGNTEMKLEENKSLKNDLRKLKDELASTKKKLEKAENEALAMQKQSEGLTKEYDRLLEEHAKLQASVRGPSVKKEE

The target of test [4] is T3, AEA-DA lipid probe targets in Neuro2a cells (Mus musculus, UniProt Q8BMK4).
T3 sequence (Q8BMK4 1-575): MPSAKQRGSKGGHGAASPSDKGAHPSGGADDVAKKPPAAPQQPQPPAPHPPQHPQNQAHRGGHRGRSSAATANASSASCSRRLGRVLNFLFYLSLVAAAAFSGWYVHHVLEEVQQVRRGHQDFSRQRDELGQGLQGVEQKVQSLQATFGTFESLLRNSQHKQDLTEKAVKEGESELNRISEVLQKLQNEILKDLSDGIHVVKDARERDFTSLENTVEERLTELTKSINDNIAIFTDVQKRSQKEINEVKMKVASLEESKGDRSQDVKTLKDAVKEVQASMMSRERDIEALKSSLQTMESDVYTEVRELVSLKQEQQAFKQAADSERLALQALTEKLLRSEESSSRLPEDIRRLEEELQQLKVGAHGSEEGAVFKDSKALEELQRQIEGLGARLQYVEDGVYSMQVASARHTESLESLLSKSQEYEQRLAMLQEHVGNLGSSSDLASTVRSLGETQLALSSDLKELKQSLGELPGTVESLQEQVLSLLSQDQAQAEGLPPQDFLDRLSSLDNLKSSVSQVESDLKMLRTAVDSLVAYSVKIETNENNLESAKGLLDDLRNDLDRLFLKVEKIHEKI

The target of test [5] is T4, AEA-DA lipid probe targets in Neuro2a cells (Mus musculus, UniProt Q8BIJ6).
T4 sequence (Q8BIJ6 49-1012): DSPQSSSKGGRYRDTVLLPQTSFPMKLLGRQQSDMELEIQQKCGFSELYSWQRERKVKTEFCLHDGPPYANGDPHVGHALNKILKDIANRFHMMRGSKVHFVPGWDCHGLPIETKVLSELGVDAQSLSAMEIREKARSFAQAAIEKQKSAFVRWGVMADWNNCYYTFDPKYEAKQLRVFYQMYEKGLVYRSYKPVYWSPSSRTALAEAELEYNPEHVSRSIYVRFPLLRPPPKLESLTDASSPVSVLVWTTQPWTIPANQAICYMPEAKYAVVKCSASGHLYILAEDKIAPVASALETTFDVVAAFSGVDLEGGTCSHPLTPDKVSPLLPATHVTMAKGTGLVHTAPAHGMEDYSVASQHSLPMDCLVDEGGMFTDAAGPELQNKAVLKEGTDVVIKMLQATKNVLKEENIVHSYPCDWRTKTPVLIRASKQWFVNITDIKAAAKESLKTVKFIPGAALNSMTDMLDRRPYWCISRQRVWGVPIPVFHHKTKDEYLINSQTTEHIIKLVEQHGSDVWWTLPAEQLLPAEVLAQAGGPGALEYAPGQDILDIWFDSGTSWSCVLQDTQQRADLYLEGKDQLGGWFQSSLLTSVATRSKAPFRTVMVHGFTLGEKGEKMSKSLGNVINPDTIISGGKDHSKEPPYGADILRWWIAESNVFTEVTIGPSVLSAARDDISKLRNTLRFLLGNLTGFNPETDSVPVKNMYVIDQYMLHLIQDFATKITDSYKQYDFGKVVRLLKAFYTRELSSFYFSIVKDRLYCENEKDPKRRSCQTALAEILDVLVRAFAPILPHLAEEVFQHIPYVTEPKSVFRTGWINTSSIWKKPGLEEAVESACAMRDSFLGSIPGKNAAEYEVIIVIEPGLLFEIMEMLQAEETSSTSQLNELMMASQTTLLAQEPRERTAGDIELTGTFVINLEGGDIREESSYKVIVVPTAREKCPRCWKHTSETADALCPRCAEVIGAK
Conditions: protein Iars2, Neuro2a cells.

Like-named read-outs stand apart in the source and are kept apart here.

Chain of AEA-DA lipid probe targets in Neuro2a cells (Mus musculus, UniProt Q9D771) (Q9D771 whole entry): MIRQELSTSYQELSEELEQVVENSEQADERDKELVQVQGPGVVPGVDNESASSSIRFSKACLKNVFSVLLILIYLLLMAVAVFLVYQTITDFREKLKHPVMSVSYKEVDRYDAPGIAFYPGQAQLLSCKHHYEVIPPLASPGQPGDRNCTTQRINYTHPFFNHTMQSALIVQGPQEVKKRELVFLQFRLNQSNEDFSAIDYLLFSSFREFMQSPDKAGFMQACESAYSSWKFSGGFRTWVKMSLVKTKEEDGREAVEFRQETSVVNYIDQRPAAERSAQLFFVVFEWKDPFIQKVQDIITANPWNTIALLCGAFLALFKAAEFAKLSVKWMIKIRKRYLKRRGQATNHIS

As to `C=CCN(C)CCCCCCOc1ccc(C(=O)c2ccc(Br)cc2)c(F)c1` [Ro 48-8071, reference compound], in test [1] (competitor 25 μM), the “SILAC ratio Abcd3” value was determined as 0.9. In test [2] (competitor 25 μM), the “SILAC ratio Tmem206” value was 0.6. Moreover, the “SILAC ratio, Bcap31” value in test [3] (competitor 25 μM) is recorded as 1.4. Besides, the “SILAC ratio, Ckap4” value in test [4] (competitor 25 μM) is 1.1. Further, in test [5] (competitor 25 μM), the “SILAC ratio (AEA-DA competition)” value is given as 0.7.

On to `CN1CCN(C(=O)c2[nH]c3ccc([N+](=O)[O-])cc3c2-c2ccccc2)CC1` [MJN228, (4-Methylpiperazin-1-yl)(5-nitro-3-phenyl-1H-indol-2-yl)methanone], for which the “SILAC ratio Abcd3” value in test [1] (competitor 10 μM) was 1.2; in test [1] (competitor 25 μM), 1.5; in test [1] (competitor 50 μM), 1.3; in test [1] (competitor 100 μM), 1.2. Moreover, the “SILAC ratio Tmem206” value in test [2] (competitor 10 μM) stood at 1.1; in test [2] (competitor 25 μM), 1.3; in test [2] (competitor 100 μM), 0.7. Also, the “SILAC ratio, Bcap31” value in test [3] (competitor 10 μM) is 2.1; in test [3] (competitor 25 μM) it was 2.5; in test [3] (competitor 50 μM), 3.8; in test [3] (competitor 100 μM) it was 4.0. For the same molecule, the “SILAC ratio, Ckap4” value in test [4] (competitor 10 μM) is listed as 1.3; in test [4] (competitor 25 μM), 1.4; in test [4] (competitor 50 μM), 1.3; in test [4] (competitor 100 μM) it was 1.8. Moreover, the results for the “SILAC ratio (AEA-DA competition)” value in test [5] (competitor 10 μM), in test [5] (competitor 25 μM) and in test [5] (competitor 50 μM) were 0.8, 1.0 and 0.7, respectively.

As for `CCCCC/C=C\C/C=C\C/C=C\C/C=C\CCCC(=O)NCCO` [AEA, anandamide, reference compound], the “SILAC ratio Abcd3” value in test [1] (competitor 200 μM) is 1.5. Besides, the “SILAC ratio Tmem206” value in test [2] (competitor 200 μM) is given as 1.2. Further, in test [3] (competitor 200 μM), the “SILAC ratio, Bcap31” value amounted to 2.3. For the same molecule, the “SILAC ratio, Ckap4” value in test [4] (competitor 200 μM) is on record as 2.0. In addition, in test [5] (competitor 200 μM), the “SILAC ratio (AEA-DA competition)” value worked out at 0.9.

For the molecule `CN1CCN(C(=O)c2c(-c3ccccc3)c3cc([N+](=O)[O-])ccc3n2C)CC1` [KML110, (1-Methyl-5-nitro-3-phenyl-1H-indol-2-yl)(4-methylpiperazin-1-yl)methanone], in test [1] (competitor 25 μM), the “SILAC ratio Abcd3” value is 1.2. Besides, the “SILAC ratio Tmem206” value in test [2] (competitor 25 μM) was 1.2. Also, the “SILAC ratio, Bcap31” value in test [3] (competitor 25 μM) amounted to 2.0. Moreover, in test [4] (competitor 25 μM), the “SILAC ratio, Ckap4” value is reported as 1.4.

As to `O=C(/C=C/c1cccnc1)NCCCCC1CCN(C(=O)c2ccccc2)CC1` [FK-866, reference compound], in test [1] (competitor 25 μM), the “SILAC ratio Abcd3” value worked out at 1.3. For the same molecule, the “SILAC ratio Tmem206” value in test [2] (competitor 25 μM) is reported as 0.9. The “SILAC ratio, Bcap31” value in test [3] (competitor 25 μM) was 1.6. Moreover, the “SILAC ratio, Ckap4” value in test [4] (competitor 25 μM) was determined as 1.1.
